Results published in US10519113B2, “Kinase inhibitor compounds, compositions, and methods of treating cancer” (ICAHN SCHOOL OF MEDICINE AT MOUNT SINAI, priority 2016, dated 2019).
“Also recorded” adds a separate entry of the source.

Columns and labels:
ptc>dRet^M955T flies [1] = assay: fly rough eye phenotype; settings: APS6-45 100 μM, AD80 100 μM
[2] = system: dRet^M955T-expressing wing cells; assay: in vivo cell migration assay in developing wing discs; settings: for ptc>dRet^M955T-mediated EMT and cell migration/invasion: wing discs of ptc>dRet^M955T larvae; for effect of reduced Lk6 on suppression of cell migration by compound: 765>dRet^M955T
From the text: For in vivo cell migration assays, third-instar larvae were dissected to collect developing wing discs. After fixation with 4% paraformaldehyde in PBS, discs were whole-mounted and observed for dRet^M955T-expressing cells labeled with GFP under a confocal microscope. At least 20 wing discs were studied for each genotype or treatment. Phospho-Src was stained with anti-Src(pY418) antibody (Invitrogen).
In addition to directing late lethality, the ptc>dRet^M955T transgenes targeted dRet^M955T expression to a stripe of cells at the midline of the developing wing disc epithelium; cells were visualized with an included UAS-GFP transgene.

ptc>dRet^M955T flies [3] = assay: rescue-from-lethality assay in ptc>dRet^M955T flies (drug screening); format: in vivo, Drosophila; settings: drug in fly food, 25° C.
765>dRet^M955T flies = assay: wing venation assay in adult flies; settings: for ectopic wing venation in 765>dRet^M955T flies: doses tested
From the text: More than 15 adult wings were scored for abnormal wing venation.

TT human MTC cells = assay: soft agar colony formation assay; format: cell-based; settings: colonies at three weeks
From the text: Imaged with ×40. […] Error bars, standard errors in triplicate.

human RET = molecular target: T1, human RET (Homo sapiens, UniProt P07949); assay: Kd measurement (KINOMEscan bead based competition assay), RET; format: binding; settings: cell-free in vitro
T1 construct: phage display fusion (kinase expressed on phage); purchased DiscoverX (KINOMEscan service); host or cells: phage
T1 sequence (P07949 29-1114): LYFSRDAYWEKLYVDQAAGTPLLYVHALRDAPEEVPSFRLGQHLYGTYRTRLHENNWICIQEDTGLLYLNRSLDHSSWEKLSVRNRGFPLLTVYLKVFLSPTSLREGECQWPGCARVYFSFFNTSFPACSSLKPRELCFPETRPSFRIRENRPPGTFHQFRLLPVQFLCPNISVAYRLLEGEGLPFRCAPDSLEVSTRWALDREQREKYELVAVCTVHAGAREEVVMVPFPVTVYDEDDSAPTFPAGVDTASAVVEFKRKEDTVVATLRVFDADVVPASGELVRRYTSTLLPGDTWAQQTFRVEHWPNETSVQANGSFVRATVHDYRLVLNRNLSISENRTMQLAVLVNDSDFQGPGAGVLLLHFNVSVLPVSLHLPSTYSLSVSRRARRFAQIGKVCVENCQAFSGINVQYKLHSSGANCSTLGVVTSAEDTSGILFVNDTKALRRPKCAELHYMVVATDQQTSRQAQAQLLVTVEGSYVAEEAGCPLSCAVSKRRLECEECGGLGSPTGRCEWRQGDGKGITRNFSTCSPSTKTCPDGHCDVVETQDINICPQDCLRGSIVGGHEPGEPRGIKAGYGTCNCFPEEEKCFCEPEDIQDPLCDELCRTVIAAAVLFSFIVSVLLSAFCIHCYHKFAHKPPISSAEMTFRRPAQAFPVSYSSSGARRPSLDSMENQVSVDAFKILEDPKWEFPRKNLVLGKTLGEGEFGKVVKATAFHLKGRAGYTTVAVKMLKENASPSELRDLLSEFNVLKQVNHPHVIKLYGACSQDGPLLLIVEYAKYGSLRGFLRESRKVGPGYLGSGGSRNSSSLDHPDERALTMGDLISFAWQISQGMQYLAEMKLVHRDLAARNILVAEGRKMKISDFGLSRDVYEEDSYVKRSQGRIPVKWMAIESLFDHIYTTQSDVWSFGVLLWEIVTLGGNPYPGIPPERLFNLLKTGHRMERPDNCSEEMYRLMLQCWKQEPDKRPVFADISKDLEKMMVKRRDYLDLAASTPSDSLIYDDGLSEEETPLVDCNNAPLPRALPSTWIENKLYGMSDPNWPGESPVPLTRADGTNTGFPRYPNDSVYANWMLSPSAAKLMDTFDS
Procedure: (§1) Kd values were determined by DiscoverX using a bead based competition assay (KINOMEscan). In brief, kinases were expressed on phage and immobilized on beads via active site-directed ligands. Test compounds were premixed with kinases and assayed for the ability to compete for immobilized ligands. Binding constants were calculated with a standard dose-response curve and the Hill equation, with Hill slope set to −1. […] For each sorafelog-kinase pair, an 11-point series ranging from 30,000 to 0.5 nM, in 3-fold dilutions, were used to derive Kd values. Kd values and s.e.m. are the average of two biological replicates.

human BRAF = molecular target: T2, human BRAF (Homo sapiens, UniProt P15056); assay: Kd measurement (KINOMEscan bead based competition assay), BRAF; settings: in vitro binding assay
T2 construct: phage display fusion (kinase expressed on phage); purchased DiscoverX (KINOMEscan service); host or cells: phage
T2 sequence (P15056 whole entry, the tested form may be a part): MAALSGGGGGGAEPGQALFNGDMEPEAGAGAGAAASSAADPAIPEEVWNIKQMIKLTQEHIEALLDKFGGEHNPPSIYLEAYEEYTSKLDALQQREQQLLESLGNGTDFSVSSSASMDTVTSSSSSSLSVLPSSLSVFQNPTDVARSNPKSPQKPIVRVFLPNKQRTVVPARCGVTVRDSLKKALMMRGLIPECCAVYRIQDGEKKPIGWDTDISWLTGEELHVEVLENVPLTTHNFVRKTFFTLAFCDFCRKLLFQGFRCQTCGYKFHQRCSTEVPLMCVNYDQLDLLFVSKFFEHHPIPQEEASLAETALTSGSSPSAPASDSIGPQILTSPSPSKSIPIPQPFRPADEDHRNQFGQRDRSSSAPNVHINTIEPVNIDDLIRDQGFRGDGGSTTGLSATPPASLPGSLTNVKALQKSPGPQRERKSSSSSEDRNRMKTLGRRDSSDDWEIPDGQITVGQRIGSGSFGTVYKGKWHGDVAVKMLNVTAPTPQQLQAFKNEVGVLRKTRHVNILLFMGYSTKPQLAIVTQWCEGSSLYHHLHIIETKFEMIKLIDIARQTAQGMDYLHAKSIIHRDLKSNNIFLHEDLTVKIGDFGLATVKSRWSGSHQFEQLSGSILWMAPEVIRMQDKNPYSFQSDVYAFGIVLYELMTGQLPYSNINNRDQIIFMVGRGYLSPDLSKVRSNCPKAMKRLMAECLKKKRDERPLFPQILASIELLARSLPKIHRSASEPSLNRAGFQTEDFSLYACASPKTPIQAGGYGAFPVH
Procedure: Kd values were determined by DiscoverX using a bead based competition assay (KINOMEscan). In brief, kinases were expressed on phage and immobilized on beads via active site-directed ligands. Test compounds were premixed with kinases and assayed for the ability to compete for immobilized ligands. Binding constants were calculated with a standard dose-response curve and the Hill equation, with Hill slope set to −1. […] Kd values and s.e.m. are the average of two biological replicates.

MKNK1 = molecular target: T3, MKNK1 (Homo sapiens, UniProt Q9BUB5); assay: Kd measurement (KINOMEscan bead based competition assay), MKNK1; format: binding; settings: in vitro
T3 construct: phage display fusion (kinase expressed on phage); purchased DiscoverX (KINOMEscan service); host or cells: phage
T3 sequence (Q9BUB5 whole entry, the tested form may be a part): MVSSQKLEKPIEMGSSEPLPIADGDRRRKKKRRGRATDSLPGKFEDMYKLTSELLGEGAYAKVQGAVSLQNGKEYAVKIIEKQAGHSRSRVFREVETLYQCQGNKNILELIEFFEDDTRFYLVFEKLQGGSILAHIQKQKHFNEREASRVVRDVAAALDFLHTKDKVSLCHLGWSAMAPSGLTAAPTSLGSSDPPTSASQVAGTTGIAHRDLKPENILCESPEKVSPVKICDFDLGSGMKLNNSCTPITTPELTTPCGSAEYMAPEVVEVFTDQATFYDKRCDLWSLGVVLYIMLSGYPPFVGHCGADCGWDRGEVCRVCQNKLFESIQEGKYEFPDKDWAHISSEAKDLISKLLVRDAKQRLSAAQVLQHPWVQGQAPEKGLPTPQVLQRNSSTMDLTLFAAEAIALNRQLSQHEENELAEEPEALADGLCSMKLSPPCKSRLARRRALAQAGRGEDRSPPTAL
Procedure: as §1

RET(M918T) = molecular target: T4, RET(M918T) (Homo sapiens, UniProt P07949, M918T); assay: Kd measurement (KINOMEscan bead based competition assay), RET(M918T); format: binding; settings: in vitro
T4 construct: phage display fusion (kinase expressed on phage); purchased DiscoverX (KINOMEscan service); host or cells: phage
T4 sequence (P07949 29-1114 M918T): as the sequence (P07949 29-1114) above, with M890T counted along it
Procedure: as §1

toleration assay in mice = format: in vivo, mouse; settings: female athymic nude mice, oral doses escalated from 0.1 up to 160 mg/kg/day
Procedure: Toleration assays for APS6-45 were performed by Washington Biotechnology (Baltimore, Md.). Briefly, five female athymic nude mice (5-6 weeks) were administered with increasing oral doses of APS6-45 starting at 0.1 mg/kg/day and observed for 2 days for signs of clinical distress such as weight loss, discharges, and morbidity.

TT cell tumors = assay: TT cell xenograft assay in nude mice; format: in vivo, mouse; settings: 10 mg/kg/day p.o.
Procedure: FIGS. 66C-E illustrate the effectiveness of the oral administration of APS6-45 to mice with xenografts. […] Dosing (10 mg/kg/day each) was started on day 0 after establishing TT cell tumors (˜120 mm^3) subcutaneously in nude mice. Error bars, standard errors (n=10). Cabo, cabozantinib; soraf, sorafenib. […] FIG. 66D and FIG. 67 illustrate Waterfall plots showing percent changes in tumor volume on day 30 relative to pretreatment baselines. Each bar represents a single animal. […] Asterisk, complete response. Two mice were lost during the course of the experiment due to unknown causes. Administration of APS6-45 had no effect on mouse body weight as illustrated in FIG. 66E (same legend as FIG. 66C).
Xenograft assays were also performed by Washington Biotechnology. 40 female nude mice (5-6 weeks) were implanted subcutaneously with TT cells. […]

[4] = pharmacokinetics assay in mice (clinical signs); format: in vivo, mouse; settings: male ICR mice, 20 mg/kg orally
Procedure: Phamacokinetics assays for APS6-45 were performed by Medicilon Preclinical Research (Shanghai, China). 20 mg/kg of APS6-45 was dosed orally to male ICR mice (5-6 weeks of age), and its plasma concentrations were determined at 0.25, 0.5, 1, 2, 4, 8, 10, and 24 hours post dosing.

EPH = assay: kinase percent inhibition measurement, EPH; format: biochemical, human; settings: cell-free kinase inhibition assay, compounds screened at 1 μM
Procedure: (§2) The sorafelogs were assayed against a panel of purified human kinases (ThermoFisher) to measure percentage inhibition values and derive kinome profiles (FIG. 61). All compounds were screened at 1 μM, using two biological replicates to determine percent inhibition values. Detailed procedures for kinase reactions and assay formats are described at www.thermofisher.com/kinaseprofiling.

ptc>dRet^M955T flies [5] = assay: kinome genetic modifier screening of ptc>dRet^M955T flies in the presence of drug; format: in vivo, Drosophila
FRK = molecular target: T5, FRK (Homo sapiens, UniProt P42685); assay: kinase percent inhibition measurement, FRK; format: biochemical; settings: cell-free kinase inhibition assay, compounds screened at 1 μM
T5 construct: purchased ThermoFisher
T5 sequence (P42685 whole entry): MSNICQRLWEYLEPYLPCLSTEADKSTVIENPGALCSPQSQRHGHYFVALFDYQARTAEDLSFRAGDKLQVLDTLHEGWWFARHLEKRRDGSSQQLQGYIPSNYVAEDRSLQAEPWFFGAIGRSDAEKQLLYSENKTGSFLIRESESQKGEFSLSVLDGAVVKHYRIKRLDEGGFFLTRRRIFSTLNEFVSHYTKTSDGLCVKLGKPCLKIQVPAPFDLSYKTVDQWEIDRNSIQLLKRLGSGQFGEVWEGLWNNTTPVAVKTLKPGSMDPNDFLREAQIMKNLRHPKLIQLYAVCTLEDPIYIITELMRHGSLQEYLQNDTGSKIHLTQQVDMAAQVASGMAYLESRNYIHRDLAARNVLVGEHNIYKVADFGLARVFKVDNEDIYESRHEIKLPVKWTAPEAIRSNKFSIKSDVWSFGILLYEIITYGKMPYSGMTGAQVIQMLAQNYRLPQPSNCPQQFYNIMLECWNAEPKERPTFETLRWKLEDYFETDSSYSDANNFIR
Procedure: as §2

non-oncogenic w^- flies = assay: whole-body toxicity in control, non-transformed flies; format: in vivo, Drosophila; settings: fed to control

SMILES: CC(C)n1nc(-c2ccc(NC(=O)Nc3cc(C(F)(F)F)ccc3F)cc2)c2c(N)ncnc21 [AD80, reference compound]
- rough eye phenotype (ptc>dRet^M955T flies [1]): did not

SMILES: CNC(=O)c1cc(Oc2ccc(NC(=O)Nc3cc(C(F)(F)F)ccc3F)c(F)c2)ccn1 [APS3-69-1, 4-(3-Fluoro-4-(3-(2-fluoro-5-(trifluoromethyl)phenyl)ureido)phenoxy)-N-methylpicolinamide]
- ptc>dRet^M955T-mediated EMT and cell migration/invasion [2]: strongly suppressed

SMILES: CNC(=O)c1cc(Oc2ccc(NC(=O)Nc3cc(C)ccc3F)cc2)ccn1 [APS4-35-1, 4-(4-(3-(2-Fluoro-5-methylphenyl)ureido)phenoxy)-N-methylpicolinamide]
- rescue of ptc>dRet^M955T viability, in words (ptc>dRet^M955T flies [3]): poor whole animal activity relative to LS1-15; also recorded: reduced rescue

SMILES: CNC(=O)c1cc(Oc2ccc(NC(=O)Nc3cc(C(F)F)ccc3F)cc2)ccn1 [APS4-54, 4-(4-(3-(5-(Difluoromethyl)-2-fluorophenyl)ureido)phenoxy)-N-methylpicolinamide]
- rescue of ptc>dRet^M955T viability, in words (ptc>dRet^M955T flies [3]): poor whole animal activity relative to LS1-15; also recorded: reduced rescue

SMILES: CNC(=O)c1cc(Oc2ccc(NC(=O)Nc3cc(C(F)(F)C(F)(F)F)ccc3F)cc2)ccn1 [APS5-16-2, 4-(4-(3-(2-Fluoro-5-(perfluoroethyl)phenyl)ureido)phenoxy)-N-methylpicolinamide]
- rescue of ptc>dRet^M955T viability, in words (ptc>dRet^M955T flies [3]): significant rescue; also recorded: strongly increased overall ptc>dRet^M955T survival beyond LS1-15
- effect of reduced Lk6 on suppression of cell migration by compound [2]: not affected
- ectopic wing venation in 765>dRet^M955T flies (765>dRet^M955T flies): exclusively suppressed wing venation; also recorded: failed to promote ectopic wing venation
- MTC colony formation (TT human MTC cells): Suppression of MTC colony formation
- RET binding / inhibition, in words (human RET): retaining RET inhibition
- BRAF binding, in words (human BRAF): significantly reduced BRAF binding
- MKNK1 binding, in words (MKNK1): significantly reduced MKNK1 binding

SMILES: CNC(=O)c1cc(Oc2ccc(NC(=O)Nc3cc(C(F)(C(F)(F)F)C(F)(F)F)ccc3F)cc2)ccn1 [APS6-45, 4-(4-(3-(2-Fluoro-5-(perfluoropropan-2-yl)phenyl)ureido)phenoxy)-N-methylpicolinamide]
- rescue of ptc>dRet^M955T viability, in words (ptc>dRet^M955T flies [3]): strongest efficacy; also recorded: strongly increased overall ptc>dRet^M955T survival beyond LS1-15
- rescue of ptc>dRet^M955T flies (rescued adults / total pupae, viability) (ptc>dRet^M955T flies [3]; optimal doses): 84%
- activity against oncogenic RET, in words (RET(M918T)): lower activity
- effect of reduced Lk6 on suppression of cell migration by compound [2]: not affected
- ectopic wing venation in 765>dRet^M955T flies (765>dRet^M955T flies): exclusively suppressed wing venation; also recorded: failed to promote ectopic wing venation
- signs of clinical distress (weight loss, discharges, morbidity) (toleration assay in mice): no such signs were observed
- MTC colony formation (TT human MTC cells): Suppression of MTC colony formation
- TT cell tumor growth in nude mice (TT cell tumors): Suppression of TT cell growth in vivo
- mouse body weight (TT cell tumors; xenograft study): no effect
- rough eye phenotype (ptc>dRet^M955T flies [1]): strongly suppressed; also recorded: strongly rescued the rough eye phenotype
- RET binding / inhibition, in words (human RET): retaining RET inhibition; also recorded: lower activity; also recorded: weakest RET binding
- BRAF binding, in words (human BRAF): significantly reduced BRAF binding
- treatment-related clinical signs [4]: No treatment-related clinical signs were observed
- MKNK1 binding, in words (MKNK1): only a small decrease

SMILES: CNC(=O)c1cc(Oc2ccc(NC(=O)Nc3cccc(C(F)(F)F)c3)cc2)ccn1 [LS1-11-2, N-Methyl-4-(4-(3-(3-(trifluoromethyl)phenyl)ureido)phenoxy)picolinamide]
- rescue of ptc>dRet^M955T viability, in words (ptc>dRet^M955T flies [3]): reduced survival

SMILES: CNC(=O)c1cc(Oc2ccc(NC(=O)Nc3cc(C(F)(F)F)ccc3F)cc2)ccn1 [LS1-15, 4-(4-(3-(2-Fluoro-5-(trifluoromethyl)phenyl)ureido)phenoxy)-N-methylpicolinamide]
- rescue of ptc>dRet^M955T viability, in words (ptc>dRet^M955T flies [3]): rescued viability significantly better than sorafenib; also recorded: most effective in rescuing lethality
- inhibition of EPH kinase activity (EPH): inhibit
- effect of reduced Lk6 on suppression of cell migration by compound [2]: reversed suppression
- ptc>dRet^M955T-mediated EMT and cell migration/invasion [2]: strongly suppressed
- wing venation at higher concentrations (765>dRet^M955T flies; higher concentrations / high doses that rescue ptc>dRet^M955T viability): suppressed venation; also recorded: did not promote ectopic wing venation
- wing venation at low dose (765>dRet^M955T flies; low dose (10 μM)): enhanced venation; also recorded: stimulated significant excess wing vein material
- viability of drug-treated ptc>dRet^M955T flies (kinase-proficient control) (ptc>dRet^M955T flies [5]; 23° C.): ~50%
- survival to adulthood of ptc>dRet^M955T, Lk6^−/+ flies (ptc>dRet^M955T flies [5]; one active allele of Lk6 removed, in the presence of drug): 0%
- viability of ptc>dRet^M955T, phl^−/+ flies (ptc>dRet^M955T flies [5]; phl (Raf ortholog) heterozygous, in the presence of drug): 96%
- inhibition of FRK kinase activity (FRK): inhibit
- BRAF binding, in words (human BRAF): significant binding

SMILES: CNC(=O)c1cc(Oc2ccc(NC(=O)c3ccc(Cl)c(C(F)(F)F)c3)cc2)ccn1 [LS1-37, 4-(4-(4-Chloro-3-(trifluoromethyl)benzamido)phenoxy)-N-methylpicolinamide]
- ptc>dRet^M955T-mediated EMT and cell migration/invasion [2]: worsened cell migration
- whole body toxicity (non-oncogenic w^- flies): toxic

SMILES: CNC(=O)c1cc(Oc2ccc(NC(=O)Nc3ccc(Cl)c(C(F)(F)F)c3)c(F)c2)ccn1 [regorafenib, 4-(4-(3-(4-Chloro-3-(trifluoromethyl)phenyl)ureido)-3-fluorophenoxy)-N-methylpicolinamide, reference compound]
- rescue of ptc>dRet^M955T viability, in words (ptc>dRet^M955T flies [3]): weak efficacy
